Assay results from patent US8557816B2, “Aurora kinase modulators and method of use” (Amgen Inc., priority 2007, dated 2013).
Where two headings read alike, the source gives them in different places.

Columns and labels:
AuroraB = molecular target: T1, AuroraB (Homo sapiens, UniProt Q96GD4); experiment: AuroraB Homogeneous Time Resolved Fluorescent (HTRF) kinase assay; format: biochemical
T1 construct: 20 μL of AuroraB FL H is for a final volume of 41 μL; His
How it was run: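 Read-out is time-resolved FRET between europium anti-phospho-H3 antibody and streptavidin-APC, added in EDTA buffer to stop the reaction and equilibrated about 60 min (ex 320, em 615 and 655 nm). Preceding reaction: ~90 min, full-length enzyme, ATP, 0.1 μM biotin-Histone H3 substrate, Mg/Mn HEPES buffer pH 7.5.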

AuroraA-TPX2 = molecular target: T2, AuroraA-TPX2 (Homo sapiens, UniProt O14965); experiment: AuroraA-TPX2 Homogeneous Time Resolved Fluorescent (HTRF) kinase assay; format: biochemical
T2 construct: 20 μL of AuroraA-TPX2 KD GST for a final volume of about 41 μL; GST
T2 sequence (O14965 133-383 limits assumed): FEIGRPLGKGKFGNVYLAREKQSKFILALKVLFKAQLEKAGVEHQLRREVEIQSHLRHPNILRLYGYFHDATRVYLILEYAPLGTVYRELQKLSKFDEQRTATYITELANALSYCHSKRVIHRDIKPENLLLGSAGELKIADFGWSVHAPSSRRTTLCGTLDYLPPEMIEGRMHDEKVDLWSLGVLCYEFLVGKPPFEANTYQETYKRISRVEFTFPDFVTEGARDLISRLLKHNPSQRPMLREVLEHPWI
T2 sequence (Q9ULW0 1-43 partner limits assumed): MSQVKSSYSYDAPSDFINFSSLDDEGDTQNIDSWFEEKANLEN
How it was run: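 HTRF read-out (Eu 615 nm to APC 655 nm) of phosphorylated biotin-PLK, detected with 0.02 nM europium anti-phosphoPLK antibody and 0.0005 mg/mL SA-APC after overnight equilibration.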

[1] = average, read-out: AurB_IC50_IP (uM Avg)
[2] = average, read-out: AurA_IC50_IP (uM Avg)

T1 sequence (Q96GD4 whole entry): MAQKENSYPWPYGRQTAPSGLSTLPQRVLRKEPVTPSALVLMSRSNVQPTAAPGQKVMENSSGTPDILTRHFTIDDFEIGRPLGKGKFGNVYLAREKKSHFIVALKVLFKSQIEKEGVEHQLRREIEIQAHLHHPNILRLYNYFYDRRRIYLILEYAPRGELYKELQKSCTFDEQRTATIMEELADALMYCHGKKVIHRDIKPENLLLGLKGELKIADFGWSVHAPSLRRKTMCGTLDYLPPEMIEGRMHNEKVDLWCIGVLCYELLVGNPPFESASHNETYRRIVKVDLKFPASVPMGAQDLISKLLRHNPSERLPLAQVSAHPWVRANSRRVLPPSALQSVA

Compound | IC50 (AuroraB; [1]) [µM] | IC50 (AuroraA-TPX2; [2]) [µM] | IC50 (AuroraB; given as class symbol, read-out: AurB_IC50_IP (class symbol)) [µM] | IC50 (AuroraA-TPX2; given as class symbol, read-out: AurA_IC50_IP (class symbol)) [µM]
COc1cnc2c(Sc3ccc(Nc4nnc(-c5cc(C)cs5)c5ccccc45)cc3)ccnc2c1 [compound 271, N-(4-(7-methoxy-1,5-naphthyridin-4-ylthio)phenyl)-4-(4-methylthiophen-2-yl)phthalazin-1-amine] | 0.024 | 0.066 |  | 
c1ccc2c(-c3ccc4c(c3)CCO4)nnc(Nc3ccc(Oc4ccnc5ccsc45)cc3)c2c1 [compound 272, 4-(2,3-dihydrobenzofuran-5-yl)-N-(4-(thieno[3,2-b]pyridin-7-yloxy)phenyl)phthalazin-1-amine] | 0.001 | 0.033 |  | 
c1ccc(-c2nnc(Nc3ccc(Oc4ncnc5[nH]ccc45)cc3)c3ccccc23)cc1 [compound 273, N-(4-(7H-pyrrolo[2,3-d]pyrimidin-4-yloxy)phenyl)-4-phenylphthalazin-1-amine] | 0.039 | 1.66 |  | 
CCc1cc(-c2ccccc2)nnc1Nc1ccc(Sc2ccnc3cc(OC)cnc23)cc1 [compound 274, 4-ethyl-N-(4-(7-methoxy-1,5-naphthyridin-4-ylthio)phenyl)-6-phenylpyridazin-3-amine] | 0.004 | 0.066 |  | 
CCc1cc(-c2ccc(Cl)cc2)nnc1Nc1ccc(Oc2ccnc3cc(OC)cnc23)nc1 [compound 275, 6-(4-chlorophenyl)-4-ethyl-N-(6-(7-methoxy-1,5-naphthyridin-4-yloxy)pyridin-3-yl)pyridazin-3-amine] | 0.011 | 0.156 |  | 
Fc1cc(F)c2c(Oc3ccc(Nc4nnc(-c5ccccc5)c5ccccc45)cc3)ccnc2c1 [compound 276, N-(4-(5,7-difluoroquinolin-4-yloxy)phenyl)-4-phenylphthalazin-1-amine] | 0.018 | 0.67 |  | 
Cc1nc(-c2nnc(Nc3ccc(Oc4ccnc5cc(C#N)ccc45)cc3)c3ccccc23)sc1C [compound 277, 4-((4-((4-(4,5-dimethyl-1,3-thiazol-2-yl)-1-phthalazinyl)amino)phenyl)oxy)-7-quinolinecarbonitrile] | 0.007 | 0.065 |  | 
COc1ccc2nccc(Oc3ccc(Nc4nnc(-c5ccc(Cl)cn5)c5ccccc45)cc3)c2c1 [compound 278, 4-(5-chloro-2-pyridinyl)-N-(4-((6-(methyloxy)-4-quinolinyl)oxy)phenyl)-1-phthalazinamine] | 0.004 | 0.082 |  | 
c1ccc2c(-c3ccc4c(c3)OCO4)nnc(Nc3ccc(Oc4ccnc5ccsc45)cc3)c2c1 [compound 279, 4-(1,3-benzodioxol-5-yl)-N-(4-(thieno[3,2-b]pyridin-7-yloxy)phenyl)-1-phthalazinamine] | 0.001 | 0.078 |  | 
COc1cnc2c(Oc3ccc(Nc4nnc(-c5cnc6[nH]ccc6c5)c5ccccc45)cc3)ccnc2c1 [compound 280, N-(4-((7-(methyloxy)-1,5-naphthyridin-4-yl)oxy)phenyl)-4-(1H-pyrrolo[2,3-b]pyridin-5-yl)-1-phthalazinamine] | 0.002 | 0.062 |  | 
COc1cnc2c(Oc3ccc(Nc4nnc(-c5ccccc5)c(C)c4C)cc3)ccnc2c1 [compound 281, 4,5-dimethyl-N-(4-((7-(methyloxy)-1,5-naphthyridin-4-yl)oxy)phenyl)-6-phenyl-3-pyridazinamine] | 0.019 | 0.696 |  | 
COc1cnc2c(Oc3ccc(Nc4nnc(-c5ccnc(Cl)c5)c5ccccc45)cc3)ccnc2c1 [compound 283, 4-(2-chloro-4-pyridinyl)-N-(4-((7-(methyloxy)-1,5-naphthyridin-4-yl)oxy)phenyl)-1-phthalazinamine] | 0.01 | 0.1 |  | 
COc1cnc2c(Oc3ccc(Nc4nnc(-c5ccc(Cl)cc5)c5ccccc45)cc3F)ccnc2c1 [compound 284, 4-(4-chlorophenyl)-N-(3-fluoro-4-((7-(methyloxy)-1,5-naphthyridin-4-yl)oxy)phenyl)-1-phthalazinamine] | 0.007 | 0.019 |  | 
c1ccc(-c2nnc(Nc3ccc(Sc4ccnc5cccnc45)cc3)c3ccccc23)cc1 [compound 285, N-(4-(1,5-naphthyridin-4-ylthio)phenyl)-4-phenyl-1-phthalazinamine] | 0.002 | 0.029 |  | 
Cc1noc(-c2cc3nccc(Oc4ccc(Nc5nnc(-c6ccc(Cl)cc6)c6ccccc56)cc4)c3s2)n1 [compound 286, 4-(4-chlorophenyl)-N-(4-((2-(3-methyl-1,2,4-oxadiazol-5-yl)thieno[3,2-b]pyridin-7-yl)oxy)phenyl)-1-phthalazinamine] | 0.022 | 0.087 |  | 
C#Cc1ccc(-c2nnc(Nc3ccc(Oc4ccnc5cc(OC)cnc45)cc3)c3ccccc23)cc1 [compound 287, 4-(4-ethynylphenyl)-N-(4-((7-(methyloxy)-1,5-naphthyridin-4-yl)oxy)phenyl)-1-phthalazinamine] | 0.013 | 0.061 |  | 
Cc1noc(-c2cc3nccc(Oc4ccc(Nc5nnc(-c6ccccc6)c6ccccc56)cc4)c3s2)n1 [compound 288, N-(4-((2-(3-methyl-1,2,4-oxadiazol-5-yl)thieno[3,2-b]pyridin-7-yl)oxy)phenyl)-4-phenyl-1-phthalazinamine] | 0.039 | 0.302 |  | 
Cc1csc(-c2nnc(Nc3ccc(Oc4ccnc5ccsc45)cc3)c3ccccc23)c1 [compound 289, 4-(4-methyl-2-thienyl)-N-(4-(thieno[3,2-b]pyridin-7-yloxy)phenyl)-1-phthalazinamine] | 0.011 | 0.068 |  | 
Clc1ccc(-c2nnc(Nc3ccc(Oc4ncnc5[nH]ccc45)cc3)c3ccccc23)cc1 [compound 290, 4-(4-chlorophenyl)-N-(4-(7H-pyrrolo[2,3-d]pyrimidin-4-yloxy)phenyl)-1-phthalazinamine] | 0.009 | 0.35 |  | 
COc1cnc2c(Oc3ccc(Nc4nnc(-c5ccc6c(c5)OC(F)(F)O6)c5ccccc45)cc3)ccnc2c1 [compound 291, 4-(2,2-difluoro-1,3-benzodioxol-5-yl)-N-(4-((7-(methyloxy)-1,5-naphthyridin-4-yl)oxy)phenyl)-1-phthalazinamine] | 0.01 | 0.031 |  | 
COc1ccc2nccc(Sc3ccc(Nc4nnc(-c5ccccc5)c5ccccc45)cc3)c2c1 [compound 292, N-(4-((6-(methyloxy)-4-quinolinyl)thio)phenyl)-4-phenyl-1-phthalazinamine] | 0.011 | 0.144 |  | 
FC1(F)Oc2ccc(-c3nnc(Nc4ccc(Oc5ccnc6ccsc56)cc4)c4ccccc34)cc2O1 [compound 293, 4-(2,2-difluoro-1,3-benzodioxol-5-yl)-N-(4-(thieno[3,2-b]pyridin-7-yloxy)phenyl)-1-phthalazinamine] | 0.006 | 0.266 |  | 
c1ccc(-c2nnc(Nc3ccc(Sc4ccnc5ccccc45)cc3)c3ccccc23)cc1 [compound 294, 4-phenyl-N-(4-(4-quinolinylthio)phenyl)-1-phthalazinamine] |  |  | < 0.1 | < 0.1
COc1ccc2nccc(Sc3ccc(Nc4nnc(-c5ccc(Cl)cc5)c5ccccc45)cc3)c2c1 [compound 297, 4-(4-chlorophenyl)-N-(4-(6-methoxyquinolin-4-ylthio)phenyl)phthalazin-1-amine] | 0.031 | 0.036 |  | 
COc1cnc2c(Oc3ccc(Nc4nnc(-c5cc(Cl)cs5)c5ccccc45)cc3)ccnc2c1 [compound 298, 4-(4-chloro-2-thienyl)-N-(4-((7-(methyloxy)-1,5-naphthyridin-4-yl)oxy)phenyl)-1-phthalazinamine] | 0.023 | 0.014 |  | 
COc1cnc2c(Oc3ccc(Nc4nnc(-c5cccc(C)c5)c5ccccc45)cc3)ccnc2c1 [compound 299, N-(4-((7-(methyloxy)-1,5-naphthyridin-4-yl)oxy)phenyl)-4-(3-methylphenyl)-1-phthalazinamine] | 0.015 | 0.018 |  | 
CCc1cc(N2CC[C@H]3CCCC[C@@H]3C2)nnc1Nc1ccc(Oc2ccnc3cc(OC)cnc23)cc1 [compound 300, 4-ethyl-N-(4-((7-(methyloxy)-1,5-naphthyridin-4-yl)oxy)phenyl)-6-((4aR,8aS)-octahydro-2(1H)-isoquinolinyl)-3-pyridazinamine] | 0.067 | 0.112 |  | 
Clc1ccc(-c2nnc(Nc3ccc(Sc4ccnc5cc(Br)cnc45)cc3)c3ccccc23)cc1 [compound 301, N-(4-((7-bromo-1,5-naphthyridin-4-yl)thio)phenyl)-4-(4-chlorophenyl)-1-phthalazinamine] | 0.063 | 0.035 |  | 
COc1cnc2c(Sc3ccc(Nc4nnc(-c5ccc(Cl)cn5)c5ccccc45)cc3)ccnc2c1 [compound 304, 4-(5-chloro-2-pyridinyl)-N-(4-((7-(methyloxy)-1,5-naphthyridin-4-yl)thio)phenyl)-1-phthalazinamine] | 0.019 | 0.013 |  | 
COc1cnc2c(Oc3ccc(Nc4nnc(-c5ccc6c(c5)OCO6)c5ccccc45)cc3)ccnc2c1 [compound 306, 4-(1,3-benzodioxol-5-yl)-N-(4-((7-(methyloxy)-1,5-naphthyridin-4-yl)oxy)phenyl)-1-phthalazinamine] | 0.03 | 0.011 |  | 
